# Reference: a melting point compilation (Tetko et al.; mined from patent text by program, amines drawn as free bases though some values may be those of a salt)
row,melting point,Structure (SMILES)
1,146 to 148 °C,COc1ccc(C)cc1NC(=O)Nc1ccc(N2CCN(C(=O)Oc3c(C)cccc3Cl)CC2)cc1
2,199 to 200 °C,CS(=O)(=O)Nc1cc2occ(NS(C)(=O)=O)c(=O)c2cc1Oc1ccccc1
3,113 to 114 °C,COCCOc1cc(N(C)S(=O)(=O)c2cccs2)c2[nH]c(C3=NCC(CC(=O)O)S3)cc2c1 (stereo not drawn)
4,62 to 64 °C,Cc1ccc2oc3ccc(C)cc3c2c1
5,38 to 39 °C,COc1ccc2cc(C(C)CC(C)=O)cc(F)c2c1 (stereo not drawn)
6,103 to 105 °C,CCCCc1oc2ccccc2c1C(=O)NCc1ccc2c(-c3ccc(OC)cc3)c(OC(Cc3ccccc3)C(=O)OC)ccc2c1 (stereo not drawn)
7,73 to 76 °C,CCOC(=O)c1cnn(-c2ccccn2)c1S(N)(=O)=O
8,98 to 100 °C,COc1ccc(NC(=O)CN2CCN(c3cccc(C(F)(F)F)c3)CC2)c([N+](=O)[O-])c1
9,200 to 230 °C,COC(=O)c1cc(-c2c(OC)cccc2OC)n(-c2ccc(NS(=O)(=O)c3ccc(C)cc3)cc2C2CCCC2)n1
10,138 °C,Cc1oc(Cc2ccccc2)c(C(=O)c2cc(C(C)C)c(O)c(C(C)C)c2)c1C
11,180 to 183 °C,O=C(c1ccc2[nH]ccc2c1)N1CCN(CCc2ccc3nonc3c2)CC1
12,214 to 217 °C,CCOC(=O)c1sc(-n2ccc(OCc3ccc(F)cc3)cc2=O)nc1C
13,138 to 140 °C,Cc1ccc(S(=O)(=O)Nc2ccc([C@@H](C)C(N)=O)cc2)cc1
14,181 to 182 °C,CCCCc1nc(Cl)c(Cl)n1Cc1ccc(-n2cccc2C(=O)O)cc1
15,209 to 210 °C,O=c1c(CCCc2ccncc2)cc2cccnc2n1-c1cccc([N+](=O)[O-])c1
16,177 to 178 °C,COc1ccc2c(c1)c(C(C)C(=O)O)cc(=O)n2-c1ccc(Cl)cc1 (stereo not drawn)
17,170 °C,CC(C)(C)OC(=O)NC1C(=O)N2C(C(=O)OCc3ccc([N+](=O)[O-])cc3)=C(S)SCC12 (mixture of isomers)
18,191 to 192 °C,COc1ccc(C(=O)Nc2ccc(Cl)cc2)cc1N
19,90 to 94 °C,COC1=C(OC)C(=O)C2=C(CC(CCCCOc3ccc(C(=O)N4CCC(c5ccccc5)CC4)cc3)C2)C1=O
20,90 to 92 °C,CCCCCCOc1nc(N)nc2c1ncn2C1C=CC(CO)C1 (stereo not drawn)
21,66 to 68 °C,CCCc1cccn1NS(=O)(=O)C1CCCC=C1C(=O)OCC (stereo not drawn)
22,84 °C,CN(CC(=O)OC(C)(C)C)S(=O)(=O)c1ccc2c(Cl)cnc(NC(=N)N)c2c1

row,melting point,Structure (SMILES)
1,118 to 120 °C,COc1ccc(NC(=O)N=C2CCCN2C)cc1OC
2,236 to 238 °C,Cc1c(C#N)oc2c(-c3ccc(F)cc3)c(-c3ccc(S(C)(=O)=O)cc3)nn12
3,120 to 125 °C,Cc1c(-c2ccc(OC(C)C)cc2)n(Cc2ccc(OCCN3CCCCCC3)cc2)c2ccc(O)cc12
4,160 to 161 °C,CS(=O)(=O)c1ccc(-c2cnn(CC(=O)c3ccc(OC(F)(F)F)cc3)c(=O)c2-c2ccc(F)cc2)cc1
5,212 to 214 °C,Cc1n[nH]c(Cn2ccnc2C)c1Oc1cc(Cl)cc(C#N)c1
6,224 to 225 °C,NC(=O)Nc1n[nH]c(-c2ccncc2)c1-c1ccc(F)cc1
7,162 °C,O=C1c2c(O)ccc(O)c2C(=O)c2c(NCCN(CCO)C(=O)C(F)(F)F)ccc(NCCN(CCO)C(=O)C(F)(F)F)c21
8,141 to 151 °C,CCCCN(CCCC)c1ccc(C=CC2=C(OC)C(=CC=CC3=C(C#N)C(=C(C#N)C#N)OC3(C)C(F)(F)F)CC(C)(C)C2)c(OC)c1 (stereo not drawn)
9,233 °C,CCOc1ccc(-c2cc(C(F)(F)F)n3ncc(-c4ccncc4)c3n2)cc1C(F)(F)F
10,202 to 204 °C,CC(C)(C)c1cc(-c2noc(N)n2)cc(C(C)(C)C)c1O
11,144 to 146 °C,CC(=O)N1CCN(c2c(Cl)cncc2Cl)CC1
12,216 °C,CC(CC(N)=O)(c1ccc(O)cc1)c1ccc(O)cc1
13,126 to 128 °C,CSc1ccc2cc(C(=O)c3ccccc3)cc(CCNC(C)=O)c2c1
14,96 to 98 °C,CCOC(=O)CNC(=O)c1ncc(O)cc1O
15,57 to 58 °C,CSCCOC(=O)CSc1cc(N=c2sc(=O)n3n2CCCC3)ccc1Cl
16,230 to 231 °C,N[C@H](Cc1cccc(C(=O)c2ccccc2)c1)C(=O)O
17,224 to 225 °C,CC(C)(C)c1cc(CCC(=O)NNC(=O)C=Cc2ccccc2)cc(C(C)(C)C)c1O
18,104 to 106 °C,CCOC(=O)c1cc(C(=O)OCC)c2c(Cl)cc(Cl)cc2n1
19,82 to 85 °C,C(=CCON(Cc1ccccc1)Cc1ccccc1)CON(Cc1ccccc1)Cc1ccccc1
20,130 to 131 °C,CCC(=O)N1Cc2cn[nH]c2-c2ccccc21
21,240 °C,C=CCSc1ccc(-c2nc3cnncc3[nH]2)c(OC)c1
22,87 to 89 °C,O=C(CCCSc1nc[nH]n1)NC/C=C\COc1cc(CN2CCCCC2)ccn1

row,melting point,Structure (SMILES)
1,50 to 57 °C,CC(C)CCCC(C)C1CCC2C3CCC4=CC(=O)C=CC4(C)C3CCC12C (stereo not drawn)
2,95 to 104 °C,CCCc1nc(C=NNC(=S)SC)c[nH]1
3,108 to 109 °C,CCOC(=O)c1ccc(CN2C(=O)c3ccccc3C2=O)o1
4,166 to 168 °C,COc1ccc(N2CCN(c3c(C)c(C)c4c(c3C)C(N3CCc5ccccc53)C(C)(C)O4)CC2)cc1 (stereo not drawn)
5,175 to 177 °C,COc1cc(N(C(=O)[C@@H](N)Cc2cnc[nH]2)S(=O)(=O)c2ccc3c(ccn3C)c2)cc(OC)c1OC
6,129 to 131 °C,O=c1cnc(-c2ccccc2)nn1CC(F)(F)F
7,142 to 144 °C,CCCCCCCCC1C=C(Oc2ccc(C(=O)O)o2)C=C2N=C3CCCCC3=C21 (stereo not drawn)
8,212 to 213 °C,O=C1Nc2cc(Cl)ccc2Nc2cscc21
9,238 °C,O=C(O)C1c2ccccc2N=C(N2CCCCC2)N1c1ccccc1 (stereo not drawn)
10,315 °C,Cc1cc2c(cc1C)-n1nnnc1C=C(c1ccc(-n3c(C)nc4cnccc43)cc1)N2
11,94 to 98 °C,C=CCNC(=O)[C@H]1N(C(=O)OC(C)(C)C)CSC1(C)C
12,243 to 245 °C,COc1cccc2c(-c3ccnc(N[C@H]4CC[C@H](O)CC4)n3)n[nH]c12
13,133 °C,CCC1CC(=O)N(Cc2ccc(NC(C)=O)cc2)N=C1c1ccc(OC)c(OC)c1 (stereo not drawn)
14,106 to 108 °C,CCOCC1COc2cc3c(Cl)c(C(=O)OCC)cnc3cc2O1 (stereo not drawn)
15,96 to 98 °C,CCSCC(=O)Nc1c(C)cccc1C
16,207 to 208 °C,O=C(NC1CCN(CCCOc2ccccc2C(=O)O)CC1)c1ccccc1
17,181 °C,COc1ccccc1NS(=O)(=O)c1cccc(C=CC(=O)NO)c1
18,175 to 176 °C,O=C(Nc1ccc(CN2CCCCC2)cc1)C1=Cc2cc(-c3ccc(F)cc3)ccc2CC1
19,187 to 188 °C,CS(=O)(=O)c1ccc(C(=O)O)c(F)c1
20,171 °C,COC(=O)C1(Cc2ccc(Br)cc2)CCCN1C(=O)Nc1cc(Cl)cc(Cl)c1 (stereo not drawn)

row,Structure (SMILES),melting point
1,CCCC(C)(c1ccc(F)cc1)c1cc(O)c2c3c(c(=O)oc2c1)CCC3 (stereo not drawn),133 to 135 °C
2,CCC(C)c1cc(Cc2cc(C(C)CC)c(N)c(C)c2Cl)c(Cl)c(C)c1N (stereo not drawn),94 to 102 °C
3,CC12CCC3C4CCC(=O)C=C4CC(CCCCCCCCCCCO[Si](C)(C)C(C)(C)C)C3C1CCC2=O (stereo not drawn),65 °C
4,CCCCn1nc(C(N)=O)cc1C,114 °C
